Results from ChEMBL document CHEMBL2150958, “Tuned-Affinity Bivalent Ligands for the Characterization of Opioid Receptor Heteromers” (ACS Med Chem Lett, 2012).

Experiments:
[1] = biological target: T1, Opioid receptors; mu and delta (Mus musculus, UniProt P42866+P32300); assay: Displacement of [3H]-DPDPE from mouse MOR/DOR expressed in HEK293 cells; type: cell-based
[2] = biological target: Delta-type opioid receptor (Mus musculus, UniProt P32300); assay: Displacement of [3H]-DPDPE from mouse DOR expressed in HEK293 cells; type: cell-based
Sequence of Delta-type opioid receptor (P32300 whole entry): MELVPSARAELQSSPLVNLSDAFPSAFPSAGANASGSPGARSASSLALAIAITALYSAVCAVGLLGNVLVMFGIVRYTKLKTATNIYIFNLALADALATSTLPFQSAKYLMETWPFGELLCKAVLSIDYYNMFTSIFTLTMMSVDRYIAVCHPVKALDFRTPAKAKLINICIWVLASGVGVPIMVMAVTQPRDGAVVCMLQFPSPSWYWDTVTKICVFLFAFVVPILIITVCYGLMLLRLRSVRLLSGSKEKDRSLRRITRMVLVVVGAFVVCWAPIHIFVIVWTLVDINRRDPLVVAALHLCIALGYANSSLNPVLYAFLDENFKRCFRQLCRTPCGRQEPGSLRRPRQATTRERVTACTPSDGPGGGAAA

Mu-type opioid receptor = Mu-type opioid receptor (Mus musculus, UniProt P42866); assay: Displacement of [3H]-DAMGO from mouse MOR expressed in HEK293 cells; type: cell-based
Sequence of Mu-type opioid receptor (P42866 whole entry): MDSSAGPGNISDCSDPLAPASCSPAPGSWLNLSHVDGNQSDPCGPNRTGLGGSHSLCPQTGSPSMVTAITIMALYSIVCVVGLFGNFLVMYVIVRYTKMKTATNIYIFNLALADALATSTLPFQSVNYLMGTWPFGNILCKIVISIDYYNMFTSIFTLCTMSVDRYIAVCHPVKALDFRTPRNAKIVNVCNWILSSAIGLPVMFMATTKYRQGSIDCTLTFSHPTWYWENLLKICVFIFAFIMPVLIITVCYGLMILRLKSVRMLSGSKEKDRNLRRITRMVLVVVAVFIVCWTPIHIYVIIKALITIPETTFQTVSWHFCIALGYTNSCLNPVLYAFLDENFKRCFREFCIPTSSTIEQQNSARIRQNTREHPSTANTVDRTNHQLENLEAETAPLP

[3] = biological target: T1, Opioid receptors; mu and delta; assay: Displacement of [3H]-DAMGO from mouse MOR/DOR expressed in HEK293 cells; type: cell-based
Mus musculus = species: Mus musculus; assay: Selectivity ratio of Ki for mouse DOR to Ki for mouse MOR/DOR

| SMILES | pKi [1] | Ki [2] | Ki (Mu-type opioid receptor) | pKi [3] | Ratio Ki (Mus musculus) |
| --- | --- | --- | --- | --- | --- |
| CCN(CC)C(=O)c1ccc(C(=C2CCNCC2)c2c(C)cc(NC(=O)COCC(=O)NCCCCCNC(=O)COCC(=O)NC)cc2C)cc1.Cl | 5.78 | 2880 nM | 550 nM | 5.92 |  |
| CN1CC[C@]23c4c5ccc(O)c4O[C@H]2[C@@H](NC(=O)COCC(=O)NCCCCCNC(=O)COCC(=O)Nc2cccc4c6c([nH]c24)[C@@H]2Oc4c(OCCc7ccccc7)ccc7c4[C@@]24CCN(CC2CC2)[C@H](C7)[C@]4(O)C6)CC[C@@]3(O)[C@H]1C5.Cl | 7.34 | 204 nM | 9.77 nM | 8.21 |  |
| Nc1cccc2c3c([nH]c12)[C@@H]1Oc2c(OCCc4ccccc4)ccc4c2[C@@]12CCN(CC1CC1)[C@H](C4)[C@]2(O)C3 | 7.46 | 91.2 nM | 120 nM | 6.94 |  |
| Cl.Oc1ccc2c3c1O[C@H]1c4[nH]c5ccccc5c4C[C@@]4(O)[C@@H](C2)N(CC2CC2)CC[C@]314 [NALTRINDOLE HYDROCHLORIDE] | 8.26 | 2.63 nM | 16.6 nM | 8.46 |  |
| CCN(CC)C(=O)c1ccc(C(=C2CCNCC2)c2c(C)cc(NC(=O)COCC(=O)NCCCCCNC(=O)COCC(=O)N[C@@H]3CC[C@@]4(O)[C@H]5Cc6ccc(O)c7c6[C@@]4(CCN5CC4CC4)[C@H]3O7)cc2C)cc1.Cl | 8.6 | 20 nM | < 1 nM | > 9 | 10 |
| CNC(=O)COCC(=O)NCCCCCNC(=O)COCC(=O)N[C@@H]1CC[C@@]2(O)[C@H]3Cc4ccc(O)c5c4[C@@]2(CCN3CC2CC2)[C@H]1O5 | 7.79 | 30.9 nM | 0.324 nM | 8.38 |  |
| CNC(=O)COCC(=O)NCCCCCNC(=O)COCC(=O)N[C@H]1CC[C@@]2(O)[C@H]3Cc4ccc(O)c5c4[C@@]2(CCN3C)[C@H]1O5 |  |  | 22.4 nM | 6.9 |  |
